Laboratory results: patent US7273885B2, “Inhibitors of serine proteases, particularly HCV NS3-NS4A protease” (Vertex Pharmaceuticals Incorporated, priority 2002, dated 2007)
Like-named read-outs stand apart in the source and are kept apart here. *1 amine or outer side, *2 acyl side, *3 side chain or, on linkers, in order; H or OH if unused. Where a SMILES comes first, the peptide text is derived from it. [ ]: non-standard residue; d: D form. The star is where a group is joined. Oic = O=C(O)[C@@H]1C[C@@H]2CCCC[C@@H]2N1; NH(1S-phenylethyl) = C[C@H](N*)c1ccccc1; X2 = CCC[C@H](N[*:1])C(=O)C(=O)[*:2]; Isopropoxycarbonyl = CC(C)OC(=O)*; Pyrazinecarbonyl = O=C(c1cnccn1)*; X1 = CCCC(N[*:1])C(=O)C(=O)[*:2]; Chg = N[C@H](C(=O)O)C1CCCCC1; Tle = CC(C)(C)[C@H](N)C(=O)O; Dap = NC[C@H](N)C(=O)O; NHcPr = C1CC1N*; Moc = COC(=O)*

Legend:
[1] = biological target: HCV NS3-NS4A protease (tNS3 with KK4A) (Hepatitis C virus genotype 1a, UniProt P27958); assay: HCV Ki assay (HPLC microbore separation of 5AB substrate and products); format: biochemical
Procedure: HPLC Microbore Method for Separation of 5AB Substrate and Products
• Substrate: • NH2-Glu-Asp-Val-Val-(alpha)Abu-Cys-Ser-Met-Ser-Tyr-COOH
A stock solution of 20 mM 5AB (or concentration of your choice) was made in DMSO w/ 0.2M DTT. This was stored in aliquots at −20 C.
Buffer: 50 mM HEPES, pH 7.8; 20% glycerol; 100 mM NaCl
Total assay volume was 100 μL
The buffer, KK4A, DTT, and tNS3 were combined; distributed 78 μL each into wells of 96 well plate. This was incubated at 30 C for ˜5–10 min.
2.5 μL of appropriate concentration of test compound was dissolved in DMSO (DMSO only for control) and added to each well. This was incubated at room temperature for 15 min.
Initiated reaction by addition of 20 μL of 250 μM 5AB substrate (25 μM concentration is equivalent or slightly lower than the Km for 5AB).
Incubated for 20 min at 30 C.
Terminated reaction by addition of 25 μL of 10% TFA
Transferred 120 μL aliquots to HPLC vials
Separated SMSY product from substrate and KK4A by the following method:
Microbore Separation Method:
Instrumentation: Agilent 1100
• Degasser G1322A • Binary pump G1312A • Autosampler G1313A • Column thermostated chamber G1316A • Diode array detector G1315A Column:
Phenomenex Jupiter; 5 micron C18; 300 angstroms; 150×2 mm; P/O 00F-4053-B0 • Column thermostat: 40 C • Injection volume: 100 μL • Solvent A=HPLC grade water+0.1% TFA • Solvent B=HPLC grade acetonitrile+0.1% TFA
• Stop time: 17 min • Post-run time: 10 min.

[2] = test system: Cells containing hepatitis C virus (HCV) replicon; assay: HCV replicon cell assay (Taqman RT-PCR of HCV RNA); format: cell-based
Procedure: HCV Replicon Cell Assay Protocol
Cells containing hepatitis C virus (HCV) replicon were maintained in DMEM containing 10% fetal bovine serum (FBS), 0.25 mg per ml of G418, with appropriate supplements (media A).
On day 1, replicon cell monolayer was treated with a trypsin:EDTA mixture, removed, and then media A was diluted into a final concentration of 100,000 cells per ml wit. 10,000 cells in 100 ul were plated into each well of a 96-well tissue culture plate, and cultured overnight in a tissue culture incubator at 37° C.
On day 2, compounds (in 100% DMSO) were serially diluted into DMEM containing 2% FBS, 0.5% DMSO, with appropriate supplements (media B). The final concentration of DMSO was maintained at 0.5% throughout the dilution series.
Media on the replicon cell monolayer was removed, and then media B containing various concentrations of compounds was added. Media B without any compound was added to other wells as no compound controls.
Cells were incubated with compound or 0.5% DMSO in media B for 48 hours in a tissue culture incubator at 37° C. At the end of the 48-hour incubation, the media was removed, and the replicon cell monolayer was washed once with PBS and stored at −80° C. prior to RNA extraction.
Culture plates with treated replicon cell monolayers were thawed, and a fixed amount of another RNA virus, such as Bovine Viral Diarrhea Virus (BVDV) was added to cells in each well. RNA extraction reagents (such as reagents from RNeasy kits) were added to the cells immediately to avoid degradation of RNA. Total RNA was extracted according the instruction of manufacturer with modification to improve extraction efficiency and consistency. Finally, total cellular RNA, including HCV replicon RNA, was eluted and stored at −80° C. until further processing.
A Taqman real-time RT-PCR quantification assay was set up with two sets of specific primers and probe. One was for HCV and the other was for BVDV. Total RNA extractants from treated HCV replicon cells was added to the PCR reactions for quantification of both HCV and BVDV RNA in the same PCR well. Experimental failure was flagged and rejected based on the level of BVDV RNA in each well. The level of HCV RNA in each well was calculated according to a standard curve run in the same PCR plate. The percentage of inhibition or decrease of HCV RNA level due to compound treatment was calculated using the DMSO or no compound control as 0% of inhibition. The IC50 (concentration at which 50% inhibition of HCV RNA level is observed) was calculated from the titration curve of any given compound.

[3] = 50% inhibition of HCV RNA level, 48-hour incubation, HCV replicon cells, read-out: IC50

Sequence of HCV NS3-NS4A protease (tNS3 with KK4A) (P27958 1027-1208): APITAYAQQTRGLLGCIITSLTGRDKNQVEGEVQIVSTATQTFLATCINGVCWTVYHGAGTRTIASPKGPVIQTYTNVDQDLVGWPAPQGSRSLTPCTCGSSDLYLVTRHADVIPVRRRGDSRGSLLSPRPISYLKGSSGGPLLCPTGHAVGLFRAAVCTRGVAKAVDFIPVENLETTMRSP

Row | Compound | Ki [1] [nM] | IC50 [2, 3] [nM] | further results
1 | CCCC(NC(=O)[C@@H]1C[C@@H]2CCCC[C@@H]2N1C(=O)[C@@H](NC(=O)[C@@H](NC(=O)c1cnccn1)C(C)C)C(C)C)C(=O)C(=O)N[C@@H](Cc1ccccc1)C(=O)O (stereo partly drawn) [Compound 1a] (Pyrazinecarbonyl-VV[Oic][X1]F-OH) | < 500 |  | 
2 | CCCC(NC(=O)[C@@H]1C[C@@H]2CCCC[C@@H]2N1C(=O)[C@@H](NC(=O)[C@@H](NC(=O)c1cnccn1)C(C)C)C(C)C)C(=O)C(=O)NC1CC1 (stereo partly drawn) [Compound 2a] | 500 to 1000 |  | 
3 | CCCC(NC(=O)[C@@H]1C[C@@H]2CCCC[C@@H]2N1C(=O)[C@@H](NC(=O)[C@@H](NC(=O)c1cnccn1)C1CCCCC1)C(C)C)C(=O)C(=O)NC1CC1 (stereo partly drawn) [Compound 3a] | < 500 |  | IC50 ([2]; 48 h): 1000 to 5000 nM
4 | CCCC(NC(=O)[C@@H]1C[C@@H]2CCCC[C@@H]2N1C(=O)[C@@H](NC(=O)[C@@H](NC(=O)c1cnccn1)C1CCCCC1)C(C)(C)C)C(=O)C(=O)NC1CC1 (stereo partly drawn) [Compound 4a] | < 500 | 500 to 1000 | 
5 | CCCC(NC(=O)[C@@H]1C[C@@H]2CCCC[C@@H]2N1C(=O)[C@@H](NC(=O)[C@@H](NC(=O)[C@H](C)NC(=O)OC(C)C)C1CCCCC1)C(C)C)C(=O)C(=O)NC1CC1 (stereo partly drawn) [Compound 5a] (Isopropoxycarbonyl-A[Chg]V[Oic][X1]-NHcPr) | < 500 |  | 
6 | CCCC(NC(=O)[C@@H]1C[C@@H]2CCCC[C@@H]2N1C(=O)[C@@H](NC(=O)[C@@H](NC(=O)[C@H](C)NC(=O)OC(C)C)C1CCCCC1)C(C)(C)C)C(=O)C(=O)NC1CC1 (stereo partly drawn) [Compound 6a] (Isopropoxycarbonyl-A[Chg][Tle][Oic][X1]-NHcPr) | < 500 |  | 
7 | CCCC(NC(=O)[C@@H]1C[C@@H]2CCCC[C@@H]2N1C(=O)[C@@H](NC(=O)[C@@H](NC(=O)c1cnccn1)C1CCCCC1)C(C)(C)C)C(=O)C(=O)N[C@@H](C)c1ccccc1 (stereo partly drawn) [Compound 7a] | < 500 |  | 
8 | CCCC(NC(=O)[C@@H]1C[C@@H]2CCCC[C@@H]2N1C(=O)[C@@H](NC(=O)[C@@H](NC(=O)C1CSC(=O)N1)C1CCCCC1)C(C)(C)C)C(=O)C(=O)N[C@@H](C)c1ccccc1 (stereo partly drawn) [Compound 8a] | < 500 |  | 
9 | CCCC(NC(=O)[C@@H]1C[C@@H]2CCCC[C@@H]2N1C(=O)[C@@H](NC(=O)[C@@H](NC(=O)[C@H](CNC(=O)OC)NC(=O)OC)C1CCCCC1)C(C)(C)C)C(=O)C(=O)N[C@@H](C)c1ccccc1 (stereo partly drawn) [Compound 9a] (Moc-[Dap](Moc)[Chg][Tle][Oic][X1]-{NH(1S-phenylethyl)}) | < 500 | < 500 | 
10 | CCC[C@H](NC(=O)[C@@H]1C[C@@H]2CCCC[C@@H]2N1C(=O)[C@@H](NC(=O)[C@@H](NC(=O)c1cnccn1)C1CCCCC1)C(C)(C)C)C(=O)C(=O)NC1CC1 [Compound 10a] | < 500 | 500 to 1000 | 
11 | CCC[C@H](NC(=O)[C@@H]1C[C@@H]2CCCC[C@@H]2N1C(=O)[C@@H](NC(=O)[C@@H](NC(=O)c1ccc[nH]1)C1CCCCC1)C(C)(C)C)C(=O)C(=O)NC1CC1 [Compound 11a] | < 500 | < 500 | 
12 | CCC[C@H](NC(=O)[C@@H]1C[C@@H]2CCCC[C@@H]2N1C(=O)[C@@H](NC(=O)[C@@H](NC(=O)c1cc([N+](=O)[O-])c[nH]1)C1CCCCC1)C(C)(C)C)C(=O)C(=O)NC1CC1 [Compound 12a] | < 500 | < 500 | 
13 | CCC[C@H](NC(=O)[C@@H]1C[C@@H]2CCCC[C@@H]2N1C(=O)[C@@H](NC(=O)[C@@H](NC(=O)c1[nH]ncc1[N+](=O)[O-])C1CCCCC1)C(C)(C)C)C(=O)C(=O)NC1CC1 [Compound 13a] | < 500 | 500 to 1000 | 
14 | CCC[C@H](NC(=O)[C@@H]1C[C@@H]2CCCC[C@@H]2N1C(=O)[C@@H](NC(=O)[C@@H](NC(=O)c1cc([N+](=O)[O-])n[nH]1)C1CCCCC1)C(C)(C)C)C(=O)C(=O)NC1CC1 [Compound 14a] | < 500 | 1000 to 5000 | 
15 | CCC[C@H](NC(=O)[C@@H]1C[C@@H]2CCCC[C@@H]2N1C(=O)[C@@H](NC(=O)[C@@H](NC(=O)c1ccn[nH]1)C1CCCCC1)C(C)(C)C)C(=O)C(=O)NC1CC1 [Compound 15a] | < 500 | < 500 | 
16 | CCC[C@H](NC(=O)[C@@H]1C[C@@H]2CCCC[C@@H]2N1C(=O)[C@@H](NC(=O)[C@@H](NC(=O)c1cc(C(C)(C)C)n[nH]1)C1CCCCC1)C(C)(C)C)C(=O)C(=O)NC1CC1 [Compound 16a] | < 500 | 1000 to 5000 | 
17 | CCC[C@H](NC(=O)[C@@H]1C[C@@H]2CCCC[C@@H]2N1C(=O)[C@@H](NC(=O)[C@@H](NC(=O)c1ccnn1C)C1CCCCC1)C(C)(C)C)C(=O)C(=O)NC1CC1 [Compound 17a] | 1000 to 5000 |  | 
18 | CCC[C@H](NC(=O)[C@@H]1C[C@@H]2CCCC[C@@H]2N1C(=O)[C@@H](NC(=O)[C@@H](NC(=O)c1nccnc1C(N)=O)C1CCCCC1)C(C)(C)C)C(=O)C(=O)NC1CC1 [Compound 28a] | < 500 |  | 
19 | CCC[C@H](NC(=O)[C@@H]1C[C@@H]2CCCC[C@@H]2N1C(=O)[C@@H](NC(=O)[C@@H](NC(=O)c1[nH]ncc1Cl)C1CCCCC1)C(C)(C)C)C(=O)C(=O)NC1CC1 [Compound 38a] | 500 to 1000 |  | 
20 | CCC[C@H](NC(=O)[C@@H]1C[C@@H]2CCCC[C@@H]2N1C(=O)[C@@H](NC(=O)[C@@H](NC(=O)c1cnccn1)C1CCCCC1)C(C)(C)C)C(=O)C(=O)N(C)C [Compound 50a] | 1000 to 5000 |  | 
21 | CCC[C@H](NC(=O)[C@@H]1C[C@@H]2CCCC[C@@H]2N1C(=O)[C@@H](NC(=O)[C@@H](NC(=O)c1cnccn1)C1CCCCC1)C(C)(C)C)C(=O)C(=O)NCC(=O)N(C)C [Compound 54a] (Pyrazinecarbonyl-[Chg][Tle][Oic][X2]G-NMe2) | 1000 to 5000 |  | 
22 | CCCC(NC(=O)[C@@H]1C[C@@H]2CCCC[C@@H]2N1C(=O)[C@@H](NC(=O)[C@@H](NC(=O)c1cnccn1)C1CCCCC1)C(C)(C)C)B1O[C@@H]2C[C@@H]3C[C@@H](C3(C)C)[C@]2(C)O1 (stereo partly drawn) [Compound 56a] |  |  | Ki ([1]; 25 nM tNS3, 25 μM KK4A, 25 μM 5AB substrate, 20 min at 30 C, read-out: Ki): < 500 nM
23 | CCC[C@H](NC(=O)[C@@H]1C[C@@H]2CCCC[C@@H]2N1C(=O)[C@@H](NC(=O)[C@H](C1CCCCC1)N1C(=O)c2ccccc2C1=O)C(C)(C)C)C(=O)C(=O)NC1CC1 [Compound 57a] | < 500 |  | 
24 | CCC[C@H](NC(=O)[C@@H]1C[C@@H]2CCCC[C@@H]2N1C(=O)[C@@H](NC(=O)[C@@H](NC(=O)c1[nH]c(C)c(C)c1C(C)=O)C(C)C)C(C)(C)C)C(=O)C(=O)NC1CC1 [Compound 58a] | < 500 |  | 
25 | CCC[C@H](NC(=O)[C@@H]1C[C@@H]2CCCC[C@@H]2N1C(=O)[C@@H](NC(=O)[C@@H](NC(=O)c1[nH]c(C)c(C)c1C(C)=O)C(C)CC)C(C)(C)C)C(=O)C(=O)NC1CC1 (stereo partly drawn) [Compound 59a] | < 500 |  | 
26 | CCC[C@H](NC(=O)[C@@H]1C[C@@H]2CCCC[C@@H]2N1C(=O)[C@@H](NC(=O)[C@@H](NC(=O)c1[nH]c(C)c(C)c1C(C)=O)C1CCCCC1)C(C)(C)C)C(=O)C(=O)C(C)C [Compound 62a] | 500 to 1000 |  | 
